According to patent US12594267B2, “Capsid inhibitors for the treatment of HIV” (Gilead Sciences, Inc., priority 2018, dated 2026):

Assay: PK after subcutaneous administration of solutions in dogs
Type: in vivo, Beagle dog
Conditions: for Plasma concentration: SC 12 mg/kg, 300 mg/mL (22.6% water/50% PEG 300/1.1% NaOH/26.3% Formula (Ia))
Method: Formulations containing the compound of Formula (Ia) were prepared as aqueous solutions or oral formulations and administered subcutaneously to rats, dogs, cynomolgus monkey, and/or rhesus monkey.
A solution of the compound of Formula (Ia) in 10% ethanol, 13% water, and 77% PEG 200 (400 mg/mL) was prepared. The solution was administered subcutaneously to dogs at a dose of 12 mg/kg and rats at a dose of 50 mg/kg and the pharmacokinetic (PK) profile was determined. […] In both species, plasma concentrations of the compound of Formula (Ia) were maintained above the target trough concentration of 20 nM (corresponding to an IQ of 5) for at least 84 days (12 weeks).
A solution of the compound of Formula (Ia) in 15% water and 85.0 PEG 300 (400 mg/mL) was prepared. The solution was administered subcutaneously to male beagle dogs at a dose level of 12 mg/kg and dose volume of […] and the pharmacokinetic (PK) profile was determined.
A solution of the compound of Formula (a) sodium salt in water and 300 (300 mg/mL) was prepared that contained 22.6% water/50% PEG 300/1.1% NaOH/26.3% Formula (Ia). The solution was administered subcutaneously to male beagle dogs at a dose level of 12 mg/kg and dose volume of […] and the pharmacokinetic (PK) profile was determined.
A 300 mg/ml solution of a compound of Formula (Ia) having 9.8 w/w % water, 65.0 w/w % PEG 300, and 25.2 w/w % of the compound of Formula (Ia) was prepared. The solution was administered subcutaneously to rats at a dose of 50 mg/kg and to dogs at a dose of 12 mg/kg and the pharmacokinetic (PK) profile was determined. […] In the rat, plasma concentrations of the compound of Formula (Ia) were maintained above the target trough concentration of 20 nM for at least 168 days (24 weeks). In the dog, plasma concentrations of the compound of Formula (Ia) were maintained above the target trough concentration of 20 nM for at least 84 days (12 weeks).
(§1) A 150 mg/ml solution of a compound of Formula (Ia) having 27.92 w/w % water, 58.04 w/w % PEG 300, 13.47 w/w % of a compound of Formula (Ia), and 1.1 w/w % NaOH was prepared. The solution was administered subcutaneously to rats at a dose of 50 mg/kg and to dogs at a dose of 12 mg/kg and the pharmacokinetic (PK) profile was determined. […] In the rat, plasma concentrations of the compound of Formula (Ia) were maintained above the target trough concentration of 20 nM for at least 126 days (18 weeks). In the dog, plasma concentrations of the compound of Formula (Ia) were maintained above the target trough concentration of 20 nM for at least 56 days (8 weeks).
as §1, with “300” for “150”, “23.2” for “27.92”, “50.0” for “58.04”, “25.7” for “13.47”
A 50 mg/ml solution of a compound of Formula (Ia) having 30.07 w/w % water, 64.40 w/w % PEG 300, 4.68 w/w % of a sodium salt of the compound of Formula (Ia), and 0.85 w/w % poloxamer 188 was prepared. The solution was administered subcutaneously to rats at a dose of 50 mg/kg and to dogs at a dose of 6 mg/kg and the pharmacokinetic (PK) profile was determined. […] In the rat, plasma concentrations of the compound of Formula (Ia) were maintained above the target trough concentration of 20 nM for at least 28 days (4 weeks). In the dog, plasma concentrations of the compound of Formula (Ia) were maintained above the target trough concentration of 20 nM for at least 14 days (2 weeks). […]

[1] = male beagle dog, single SC 12 mg/kg, 300 mg/mL, 50, 22.6, 1.1, 26.3 w/w % PEG300:Water:NaOH:Formula (Ia), mean ± SD, n=3

In the case of `CC(C)(C#Cc1ccc(-c2ccc(Cl)c3c([N-]S(C)(=O)=O)nn(CC(F)(F)F)c23)c([C@H](Cc2cc(F)cc(F)c2)NC(=O)Cn2nc(C(F)(F)F)c3c2C(F)(F)[C@@H]2C[C@H]32)n1)S(C)(=O)=O.[Na+]` [Formula (Ia) sodium salt], the Plasma concentration (dog #1, 0 h) is reported as “BLQ”, the Plasma concentration (dog #1, 1.0 h) is reported as 14.0 nM and the Plasma concentration (dog #1, 3.0 h) is reported as 26.0 nM. For the same compound, the Plasma concentration (dog #1, 8.0 h) was 56.3 nM, the Plasma concentration (dog #1, 24 h) was 57.1 nM and the Plasma concentration (dog #1, 48 h) was 71.1 nM. For the same compound, the Plasma concentration (dog #1, 72 h) was 51.5 nM, the Plasma concentration (dog #1, 96 h) was 46.4 nM and the Plasma concentration (dog #1, 168 h) was 47.7 nM. For the same compound, the Plasma concentration (dog #2, 0 h) was “BLQ”, the Plasma concentration (dog #2, 1.0 h) was 7.2 nM and the Plasma concentration (dog #2, 3.0 h) was 17.0 nM. The Plasma concentration (dog #2, 8.0 h) was 25.8 nM, the Plasma concentration (dog #2, 24 h) was 25.4 nM and the Plasma concentration (dog #2, 48 h) was 29.0 nM. It also gave a Plasma concentration (dog #2, 72 h) of 16.2 nM, a Plasma concentration (dog #2, 96 h) of 14.0 nM and a Plasma concentration (dog #2, 168 h) of 13.6 nM. The Plasma concentration (dog #3, 0 h) was “BLQ”, the Plasma concentration (dog #3, 1.0 h) was 8.6 nM and the Plasma concentration (dog #3, 3.0 h) was 16.8 nM. The Plasma concentration (dog #3, 8.0 h) was 32.1 nM, the Plasma concentration (dog #3, 24 h) was 54.5 nM and the Plasma concentration (dog #3, 48 h) was 57.8 nM. For the same compound, the Plasma concentration (dog #3, 72 h) was 58.0 nM, the Plasma concentration (dog #3, 96 h) was 59.2 nM and the Plasma concentration (dog #3, 168 h) was 43.1 nM. For the same compound, the Plasma concentration (dog mean, n=3, 1.0 h) was 10.0 nM, the Plasma concentration (dog mean, n=3, 3.0 h) was 19.9 nM and the Plasma concentration (dog mean, n=3, 8.0 h) was 38.1 nM. The Plasma concentration (dog mean, n=3, 24 h) was 45.7 nM, the Plasma concentration (dog mean, n=3, 48 h) was 52.6 nM and the Plasma concentration (dog mean, n=3, 72 h) was 41.9 nM. The Plasma concentration (dog mean, n=3, 96 h) was 39.9 nM, the Plasma concentration (dog mean, n=3, 168 h) was 34.8 nM and the AUC0-24h [1] was 0.85 ± 0.31 µM·h. It also gave an AUC0-48h [1] of 2.03 ± 0.76 µM·h, an AUC0-72h [1] of 3.16 ± 1.27 µM·h and an AUC0-168h [1] of 6.83 ± 3.24 µM·h.
